Data as given in article PMC7718890 (Scientific Reports, 2020).
Where “and” joins values, the source holds several entries; their conditions need not be identical. Equal values may be shown once. Read-outs that look alike come from different tables or passages of the source.

Assays:
[1] = target: CarD·RNAP binding (CarD association with RPo)
RNAP = settings: cited from earlier work
[2] = Turbidity test (OD620) for aggregation; type: physicochemical

Chain of CarD·RNAP binding (CarD association with RPo) (P9WGY5 whole entry): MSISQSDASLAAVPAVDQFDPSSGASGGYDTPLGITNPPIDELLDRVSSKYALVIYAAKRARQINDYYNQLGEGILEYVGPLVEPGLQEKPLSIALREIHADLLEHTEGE
Chain of CarD·RNAP binding (CarD association with RPo) (P9WGI1 whole entry, further chain): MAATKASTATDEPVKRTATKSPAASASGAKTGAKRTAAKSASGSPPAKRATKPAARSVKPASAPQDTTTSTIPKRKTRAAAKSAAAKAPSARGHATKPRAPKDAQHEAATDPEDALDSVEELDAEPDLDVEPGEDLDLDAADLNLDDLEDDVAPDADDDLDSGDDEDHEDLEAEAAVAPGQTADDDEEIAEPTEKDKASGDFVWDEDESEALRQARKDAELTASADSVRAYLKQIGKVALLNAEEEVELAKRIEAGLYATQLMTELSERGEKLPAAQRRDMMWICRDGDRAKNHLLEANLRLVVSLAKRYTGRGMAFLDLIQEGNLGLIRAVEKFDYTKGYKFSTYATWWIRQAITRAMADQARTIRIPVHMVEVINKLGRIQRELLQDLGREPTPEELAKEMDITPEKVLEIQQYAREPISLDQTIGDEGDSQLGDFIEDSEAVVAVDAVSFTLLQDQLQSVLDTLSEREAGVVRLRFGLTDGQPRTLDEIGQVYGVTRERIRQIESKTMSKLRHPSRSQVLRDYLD
Chain of CarD·RNAP binding (CarD association with RPo) (P9WGY7 whole entry, further chain): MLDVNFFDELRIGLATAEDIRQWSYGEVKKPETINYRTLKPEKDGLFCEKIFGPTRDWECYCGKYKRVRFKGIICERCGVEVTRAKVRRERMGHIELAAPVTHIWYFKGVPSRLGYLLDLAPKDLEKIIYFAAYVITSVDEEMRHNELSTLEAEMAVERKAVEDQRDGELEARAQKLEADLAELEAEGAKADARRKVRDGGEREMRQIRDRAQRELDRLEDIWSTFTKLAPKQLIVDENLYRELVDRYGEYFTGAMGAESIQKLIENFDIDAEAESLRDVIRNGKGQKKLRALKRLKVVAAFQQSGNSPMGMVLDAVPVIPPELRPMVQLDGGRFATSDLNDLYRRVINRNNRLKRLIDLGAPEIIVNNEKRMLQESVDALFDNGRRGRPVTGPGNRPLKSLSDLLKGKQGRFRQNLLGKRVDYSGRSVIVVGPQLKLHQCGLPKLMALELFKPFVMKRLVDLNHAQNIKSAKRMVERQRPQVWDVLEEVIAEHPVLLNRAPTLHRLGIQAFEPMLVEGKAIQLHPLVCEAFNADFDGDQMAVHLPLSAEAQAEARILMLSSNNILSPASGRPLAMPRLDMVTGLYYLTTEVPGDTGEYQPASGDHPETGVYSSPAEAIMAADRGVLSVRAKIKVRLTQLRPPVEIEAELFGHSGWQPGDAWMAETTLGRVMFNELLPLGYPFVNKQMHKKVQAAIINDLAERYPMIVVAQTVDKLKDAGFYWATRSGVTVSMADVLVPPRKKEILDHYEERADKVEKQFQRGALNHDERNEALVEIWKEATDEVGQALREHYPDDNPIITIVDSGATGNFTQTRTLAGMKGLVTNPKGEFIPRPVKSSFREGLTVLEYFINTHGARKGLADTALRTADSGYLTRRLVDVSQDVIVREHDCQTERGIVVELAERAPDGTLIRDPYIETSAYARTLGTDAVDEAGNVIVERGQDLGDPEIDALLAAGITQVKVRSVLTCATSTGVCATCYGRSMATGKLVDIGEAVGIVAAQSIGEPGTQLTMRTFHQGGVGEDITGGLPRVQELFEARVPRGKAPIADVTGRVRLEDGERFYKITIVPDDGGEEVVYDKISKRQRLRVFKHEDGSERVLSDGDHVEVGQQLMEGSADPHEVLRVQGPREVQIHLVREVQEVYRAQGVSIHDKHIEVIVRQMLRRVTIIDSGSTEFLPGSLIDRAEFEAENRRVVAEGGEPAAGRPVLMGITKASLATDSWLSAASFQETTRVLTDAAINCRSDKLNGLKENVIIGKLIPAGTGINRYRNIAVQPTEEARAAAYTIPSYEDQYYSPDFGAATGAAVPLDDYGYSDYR
Chain of CarD·RNAP binding (CarD association with RPo) (P9WGY9 whole entry, further chain): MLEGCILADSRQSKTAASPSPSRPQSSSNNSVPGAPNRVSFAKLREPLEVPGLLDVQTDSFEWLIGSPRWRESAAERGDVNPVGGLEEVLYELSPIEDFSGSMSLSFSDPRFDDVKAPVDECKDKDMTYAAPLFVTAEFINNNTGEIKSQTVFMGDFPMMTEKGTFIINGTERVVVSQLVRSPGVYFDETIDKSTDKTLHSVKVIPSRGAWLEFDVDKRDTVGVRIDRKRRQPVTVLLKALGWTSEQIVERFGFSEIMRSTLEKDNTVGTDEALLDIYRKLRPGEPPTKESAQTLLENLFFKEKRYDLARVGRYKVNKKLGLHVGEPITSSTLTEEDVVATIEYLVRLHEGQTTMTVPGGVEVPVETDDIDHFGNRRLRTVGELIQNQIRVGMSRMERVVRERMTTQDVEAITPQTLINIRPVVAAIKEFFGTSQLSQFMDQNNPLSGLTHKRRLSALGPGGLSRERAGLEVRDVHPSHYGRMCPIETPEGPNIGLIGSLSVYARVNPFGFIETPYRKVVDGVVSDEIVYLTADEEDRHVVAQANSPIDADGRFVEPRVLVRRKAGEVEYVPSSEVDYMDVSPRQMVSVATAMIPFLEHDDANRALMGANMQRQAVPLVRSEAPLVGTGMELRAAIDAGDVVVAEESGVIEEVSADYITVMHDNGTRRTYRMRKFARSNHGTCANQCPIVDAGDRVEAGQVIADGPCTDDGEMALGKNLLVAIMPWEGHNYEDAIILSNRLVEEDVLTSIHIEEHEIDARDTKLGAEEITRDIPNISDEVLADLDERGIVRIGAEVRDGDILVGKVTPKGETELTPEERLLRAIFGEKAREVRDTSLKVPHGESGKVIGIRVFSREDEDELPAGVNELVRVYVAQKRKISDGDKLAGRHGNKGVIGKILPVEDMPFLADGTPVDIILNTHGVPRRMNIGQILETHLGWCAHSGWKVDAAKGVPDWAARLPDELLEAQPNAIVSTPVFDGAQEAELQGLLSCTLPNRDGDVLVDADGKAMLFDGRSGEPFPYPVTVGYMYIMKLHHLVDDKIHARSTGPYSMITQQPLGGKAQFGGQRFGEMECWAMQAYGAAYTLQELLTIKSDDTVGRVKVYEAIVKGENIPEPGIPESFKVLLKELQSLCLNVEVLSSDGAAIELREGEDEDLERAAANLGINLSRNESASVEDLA
Chain of CarD·RNAP binding (CarD association with RPo) (P9WGZ1 whole entry, further chain): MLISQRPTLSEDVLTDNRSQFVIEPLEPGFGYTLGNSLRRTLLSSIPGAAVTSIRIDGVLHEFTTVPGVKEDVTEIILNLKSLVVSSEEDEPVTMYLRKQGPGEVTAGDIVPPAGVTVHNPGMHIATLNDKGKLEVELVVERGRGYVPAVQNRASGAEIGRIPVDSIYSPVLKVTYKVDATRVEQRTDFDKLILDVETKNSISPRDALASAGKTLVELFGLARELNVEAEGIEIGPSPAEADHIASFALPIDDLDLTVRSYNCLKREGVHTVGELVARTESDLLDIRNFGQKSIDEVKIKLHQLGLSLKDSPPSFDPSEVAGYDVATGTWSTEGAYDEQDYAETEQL

| Compound | IC50 [1] | IC50 (RNAP; read-out: IC50 In Vitro Transcription +RbpA) [µM] | IC50 (RNAP; read-out: IC50 In Vitro Transcription -RbpA) [µM] | Concentration above which compound is prone to aggregation (turbidity curve) [2] |
| --- | --- | --- | --- | --- |
| Cc1cc2c(NC(=O)Nc3ccccc3)cccc2nn1 [CCG-237488] | 20 µM |  |  |  |
| CCc1c(Cl)c(O)c(Cl)c(O)c1C(=O)O[C@H]1[C@H](O)[C@H](OC)[C@H](OC/C2=C\C=C\C[C@H](O)/C(C)=C/[C@H](CC)[C@@H](O[C@@H]3OC(C)(C)[C@@H](OC(=O)C(C)C)[C@H](O)[C@@H]3O)/C(C)=C/C(C)=C/C[C@@H]([C@@H](C)O)OC2=O)O[C@@H]1C [Fidaxomicin] |  | 0.21 | 7 |  |
| O=C(O)c1ccc(-c2nc3ccc(-c4ccc5nc(-c6ccc(C(=O)O)cc6)[nH]c5c4)cc3[nH]2)cc1 [CCG-249580] | 32 µM and 45 µM |  |  | higher than 34 µM |
